{"source": "patent US8507440B2", "about": "“Protein kinase C peptides for use in withdrawal” (The Board of Trustees of the Leland Stanford Junior …, priority 2002, dated 2013)", "key": {"[1]": {"test_system": "N-methyl-D-aspartate (NMDA) receptor currents", "experiment": "alcohol withdrawal hyperresponsiveness of NMDA-evoked currents in lumbar spinal cord slice motor neurons", "format": "cell-based, rat", "settings": "100 mM EtOH, n=11 motor neurons", "source_text": "Spinal cords were taken from young rats, and slices of these cords were made and placed in artificial cerebrospinal fluid for patch clamp electrophysiological analysis, to characterize the ability of γPKC peptides to mediate alcohol withdrawal hyperresponsiveness of N-methyl-D-aspartate (NMDA) receptor currents. FIG. 7A is a schematic diagram of the technique, where a lumbar spinal cord slice 10 is shown. The placement of a recording electrode 12 and a pipette 14 for application of NMDA relative to a motor neuron 16 is illustrated.\nSprague-Dawley rats at postnatal day 7-10 were anesthetized with halothane, decapitated, and the spinal cords were quickly removed. Slices […] thick were sectioned from the lumbar region. Whole cell voltage clamp recordings were made from visually-identified motor neurons using infrared video microscopy, a 60× water immersion lens, and a MultiClamp 700A patch clamp amplifier. Cells were held at a holding potential of −60 mV in artificial cerebrospinal fluid (ACSF) containing bicuculline methiodide ([…]), strychnine ([…]), and tetrodotoxin ([…]). Postsynaptic currents were evoked by direct pressure application of 2 mM N-methyl-D-aspartate (NMDA) from a pipette positioned near the recorded cell at 1-2 min intervals, as illustrated in FIG. 7A. The area of evoked currents during and following 100 mM ethanol (EtOH) application was measured and normalized to the average baseline current area during the 10 minutes preceding EtOH application. Data are expressed as mean +/−SEM: Statistical significance was determined by one-way ANOVA followed by Dunn's or Tukey's multiple comparison test with significance set at p<0.05."}, "[2]": {"molecular_target": "T1, γPKC (Rattus norvegicus, UniProt P63319)", "T1 construct": "from tissue; host or cells: lumbar spinal cord slices of postnatal day 7-10 Sprague-Dawley rats", "format": "cell-based", "settings": "after application of ethanol 100 mM; control about 14", "method": "Fluorescence immunocytochemical studies were performed on the spinal cord sections, as described in Example 3. The sections were incubated with an anti-γPKC antibody and an anti-neuronal antibody to identify neurons. […] Translocation of γPKC was quantified by counting the number of cells with γPKC localized to the nucleus before (control) and after application of ethanol, as well as after washing with artificial cerebrospinal fluid. […] Two to three sections per animal were counted.\nFluorescence immunocytochemical studies were performed on spinal cord sections […] from control slices (perfused with ACSF for 70 minutes) and EtOH treated slices (perfused with ACSF for 30 minutes followed by 20 min 100 mM EtOH and 20 min wash with ACSF). The sections were incubated with a rabbit anti-PKCg polyclonal antibody (1:500) overnight at 4° C. In some cord sections, a mouse anti-neuronal nuclei monoclonal antibody (NeuN, 1:750) was added to identify neurons. After several washes with ACSF, the sections were labeled for 2 hours at room temperature with fluorescein-labeled secondary antibodies (1:500). Double immunofluorescence was assessed with a laser confocal microscope."}, "[3]": {"test_system": "7 day old and 21 day old rats", "experiment": "ethanol withdrawal mechanical allodynia testing (von Frey threshold withdrawal force)", "format": "in vivo, rat"}, "[4]": {"test_system": "7 day old and 21 day old rats", "experiment": "ethanol withdrawal thermal hyperalgesia testing (paw withdrawal latency)", "format": "in vivo, rat", "settings": "4 g/kg 15% EtOH"}, "[5]": {"test_system": "γPKC", "method": "(§1) To determine if EtOH alters the expression and cellular localization of εPKC and γPKC, immunohistochemistry was performed on L4/5 dorsal root ganglion (DRG) and L4/5 lumbar spinal cord sections, as described in Example 4. Rat at postnatal days 7 and 21, treated with saline or 4 g/kg 15% EtOH, were euthanized at 2, 4, or 6 hours post injection for isolation of the lumbar spinal cords.\n(§2) Animals administered a single dose of 4 g/kg 15% EtOH or saline (i.p.) were deeply anesthetized with halothane and euthanized at 2, 4, or 6 hours post injection by transcardiac perfusion (phosphate-buffered saline wash, followed by 4% formaldehyde in PBS, pH 7.4). Following perfusion, lumbar spinal cord and L4/L5 dorsal root ganglia (DRG) were isolated and post-fixed for 3 hours in 4% formaldehyde solution followed by cryoprotection in 30% sucrose/PBS at 4° C. Sections were freeze-mounted in OCT-embedding medium on cork blocks and stored at −80° C. until analysis. For spinal cord sections, free-floating immunohistochemistry was performed on 30 μm L4-L5 spinal sections. Dorsal root ganglia were cut on a cryostat at 10 μm and slide mounted. Slides were heated overnight at 32° C. Immunohistochemistry was performed utilizing an avidin-biotin complex (ABC) technique as previously described (Sweitzer et al., Brain Res., 829(1-2):209-221 (1999)). Rabbit polyclonal antibodies to γPKC (1:500 from Santa Cruz) or εPKC (1:1,000 from Santa Cruz) were used. Immunohistochemistry was scored blinded to experimental conditions.\n(§3) For both spinal cord tissues and DRG, densitometry using ImageJ software was performed on at least three sections from each of three individual animals."}, "[6]": {"test_system": "εPKC", "method": "as §1, §2, §3"}, "[7]": {"settings": "for maximal blood EtOH concentration: 30 minutes post 4 g/kg 15% EtOH; for maximal EtOH concentration in spinal cord: 4 g/kg 15% EtOH"}, "[8]": {"experiment": "in vivo", "settings": "rat, 4 g/kg"}, "[9]": {"settings": "21 day old rats, 4 g/kg and 0.5 g/kg 15% EtOH"}}, "note": "Where two headings read alike, the source gives them in different places.", "data": [{"molecule": "CCO", "note": "[EtOH, ethanol]", "values": [{"measurement": "normalized NMDA current (INMDA) area after application of alcohol", "setting": "[1]", "result": "increases"}, {"measurement": "number of cells having γPKC localized in the nucleus", "setting": "[2]", "result": "about 6"}, {"measurement": "threshold withdrawal force after ethanol", "setting": "[3]; 7 day old rats, 1 g/kg 15% EtOH", "result": "did not significantly alter the threshold withdrawal force"}, {"measurement": "paw threshold withdrawal force after ethanol", "setting": "[3]; 7 day old rats, 4 g/kg 15% EtOH, 6 hours and 8 hours post injection", "result": "exhibited mechanical allodynia"}, {"measurement": "threshold withdrawal force after ethanol", "setting": "[3]; 7 day old rats, 4 g/kg 15% EtOH, two hour test interval", "result": "slight but insignificant increase in threshold withdrawal force"}, {"measurement": "mechanical thresholds after ethanol", "setting": "[3]; [9]", "result": "maximally decreased mechanical thresholds at 6 hours post EtOH injection"}, {"measurement": "time withdrawal thresholds remained below baseline", "setting": "[3]; [9]", "result": "up to 72 hours"}, {"measurement": "thermal paw withdrawal latency after ethanol", "setting": "[4]; 7 day old rats, 6 hours", "result": "Thermal hyperalgesia as evidenced by a decrease in paw withdrawal latency, was observed"}, {"measurement": "thermal paw withdrawal latency after ethanol", "setting": "[4]; 21 day old rats, entire time period", "result": "did not exhibit a decrease in paw withdrawal latency"}, {"measurement": "γPKC cellular localization", "setting": "[5]; 2 hours post-EtOH injection", "result": "had translocated to the plasma membrane"}, {"measurement": "number of somata staining positive for γPKC above saline control levels", "setting": "[5]; 7 day old rats, lamina II, 6 hours post injection of 4 g/kg 15% EtOH", "result": 4, "unit": "fold"}, {"measurement": "γPKC staining intensity", "setting": "[5]; 21 day old rats, 2 to 6 hours post-EtOH injection", "result": "γPKC staining intensity increased"}, {"measurement": "cells staining positive for εPKC", "setting": "[6]; 7 day old rats, 2 hour exposure to 4 g/kg 15% EtOH", "result": "the percentage of cells staining positive for εPKC increased"}, {"measurement": "cells staining positive for εPKC and staining intensity", "setting": "[6]; 21 day old rats, 4 g/kg 15% EtOH", "result": "did not result in an increase in the number of positive staining cells or in the staining intensity within positively stained cells"}, {"measurement": "time of peak spinal cord EtOH level", "setting": "[7]; 7 day old and 21 day old rats, post injection", "result": 30, "unit": "min"}, {"measurement": "maximal blood EtOH concentration", "setting": "[7]; 7 day old pups", "result": "5.91 ± 0.46", "unit": "µg/mL"}, {"measurement": "maximal EtOH concentration in spinal cord", "setting": "[7]; 7 day old rats", "result": 14.8, "unit": "μg/mg tissue"}, {"measurement": "maximal EtOH concentration in spinal cord", "setting": "[7]; 21 day old rats", "result": 11.4, "unit": "μg/mg tissue"}, {"measurement": "maximal blood EtOH concentration", "setting": "[7]; 21 day old rats", "result": "5.67 ± 0.60", "unit": "µg/mL"}, {"measurement": "time of peak blood EtOH concentration", "setting": "[7]; both 7 day old and 21 day old rats, post-ethanol injection", "result": 30, "unit": "min"}, {"measurement": "spinal cord later-phase half-life relative to half life for blood EtOH levels", "setting": "[7]; rat, in vivo", "result": 50, "unit": "%"}, {"measurement": "half-life", "setting": "[8]; spinal cord, ip, T ½ Early, 7 day old rat, 4 g/kg 15% EtOH i.p.", "result": 96, "unit": "min"}, {"measurement": "half-life", "setting": "[8]; spinal cord, ip, T ½ Early, 21 day old rat, 4 g/kg 15% EtOH i.p.", "result": 90, "unit": "min"}, {"measurement": "half-life", "setting": "[8]; spinal cord, ip, T ½ Late, 7 day old rat, 4 g/kg 15% EtOH i.p.", "result": 690, "unit": "min"}, {"measurement": "half-life", "setting": "[8]; spinal cord, ip, T ½ Late, 21 day old rat, 4 g/kg 15% EtOH i.p.", "result": 702, "unit": "min"}, {"measurement": "half-life", "setting": "[8]; whole blood, intraperitoneal, extension of blood late phase half-life of 21 day old beyond 7 day old rats, blood", "result": 240, "unit": "min"}, {"measurement": "half-life", "setting": "[8]; whole blood, ip, T ½ Early, Blood, 7 day old rat, 4 g/kg 15% EtOH i.p.", "result": 114, "unit": "min"}, {"measurement": "half-life", "setting": "[8]; whole blood, ip, T ½ Early, Blood, 21 day old rat, 4 g/kg 15% EtOH i.p.", "result": 102, "unit": "min"}, {"measurement": "half-life", "setting": "[8]; whole blood, ip, T ½ Late, Blood, 7 day old rat, 4 g/kg 15% EtOH i.p.", "result": 1090, "unit": "min"}, {"measurement": "half-life", "setting": "[8]; whole blood, ip, T ½ Late, Blood, 21 day old rat, 4 g/kg 15% EtOH i.p.", "result": 1350, "unit": "min"}]}]}
